Measurements from patent US20220162191A1, “SMALL MOLECULE MODULATORS OF IL-17” (LEO PHARMA A/S, priority 2019, published 2022).

molecular target: T1, human IL-17AA (Homo sapiens, UniProt Q16552); experiment: IL-8 release assay in human epithelial keratinocytes adult (HEKa); format: cell-based; settings: 3 ng/ml human IL-17AA + 10 ng/ml human TNFalpha, 68-72 h, IL-8 by HTRF, read-out: Rel EC50 L-8 release assay
T1 construct: host or cells: HEK (human embryonic kidney) cells
T1 sequence (Q16552 24-155) 1: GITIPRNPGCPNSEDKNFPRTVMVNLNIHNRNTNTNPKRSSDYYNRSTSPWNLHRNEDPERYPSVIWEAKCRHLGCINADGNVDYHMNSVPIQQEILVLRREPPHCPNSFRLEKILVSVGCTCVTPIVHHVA
T1 sequence (Q16552 24-155) 2: T1 sequence (Q16552 24-155) 1
Procedure, shortened: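 Adult human keratinocytes in Epilife with HKGS minus hydrocortisone, treated with compound then stimulated with final 3 ng/ml HEK-derived human IL-17AA plus 10 ng/ml TNF-alpha for 68–72 h at 37 °C; TNF-alpha alone defines 100% inhibition. Secreted IL-8 by HTRF; relative IC50 and Emax from four-parameter fits.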

| Compound | EC50 |
| --- | --- |
| Cn1cncc1-c1ccc(NC(=O)C(Cc2cc(-c3ccnc(N4CC[C@H]4CO)c3)ccc2Cl)NC(=O)c2ccnn2C)cc1 (stereo partly drawn) [Example 188, N-[1-[[2-chloro-5-[2-[(2S)-2-(hydroxymethyl)azetidin-1-yl]-4-pyridyl]phenyl]methyl]-2-[4-(3-methylimidazol-4-yl)anilino]-2-oxo-ethyl]-2-methyl-pyrazole-3-carboxamide] | 100 to 1000 nM |
| Cn1cncc1-c1ccc(NC(=O)C(Cc2cc(-c3ccnc(N4CCC[C@@H]4CO)c3)ccc2Cl)NC(=O)c2ccnn2C)cc1 (stereo partly drawn) [Example 189, N-[1-[[2-chloro-5-[2-[(2R)-2-(hydroxymethyl)pyrrolidin-1-yl]-4-pyridyl]phenyl]methyl]-2-[4-(3-methylimidazol-4-yl)anilino]-2-oxo-ethyl]-2-methyl-pyrazole-3-carboxamide] | 100 to 1000 nM |
| Cn1cncc1-c1ccc(NC(=O)C(Cc2cc(-c3ccnc(N4CC(CO)C4)c3)ccc2Cl)NC(=O)c2ccnn2C)cc1 (stereo not drawn) [Example 190, N-[1-[[2-chloro-5-[2-[3-(hydroxymethyl)azetidin-1-yl]-4-pyridyl]phenyl]methyl]-2-[4-(3-methylimidazol-4-yl)anilino]-2-oxo-ethyl]-2-methyl-pyrazole-3-carboxamide] | 100 to 1000 nM |
| Cn1cncc1-c1ccc(NC(=O)C(Cc2cc(-c3ccnc(N4CC[C@H](O)C4)c3)ccc2Cl)NC(=O)c2ccnn2C)cc1 (stereo partly drawn) [Example 191, N-[1-[[2-chloro-5-[2-[(3S)-3-hydroxypyrrolidin-1-yl]-4-pyridyl]phenyl]methyl]-2-[4-(3-methylimidazol-4-yl)anilino]-2-oxo-ethyl]-2-methyl-pyrazole-3-carboxamide] | 100 to 1000 nM |
| Cn1cncc1-c1ccc(NC(=O)C(Cc2cc(-c3ccnc(N4CC[C@@H](O)C4)c3)ccc2Cl)NC(=O)c2ccnn2C)cc1 (stereo partly drawn) [Example 192, N-[1-[[2-chloro-5-[2-[(3R)-3-hydroxypyrrolidin-1-yl]-4-pyridyl]phenyl]methyl]-2-[4-(3-methylimidazol-4-yl)anilino]-2-oxo-ethyl]-2-methyl-pyrazole-3-carboxamide] | 100 to 1000 nM |
| Cn1cncc1-c1ccc(NC(=O)C(Cc2cc(-c3ccnc(N4CC(O)C4)c3)ccc2Cl)NC(=O)c2ccnn2C)cc1 (stereo not drawn) [Example 193, N-[1-[[2-chloro-5-[2-(3-hydroxyazetidin-1-yl)-4-pyridyl]phenyl]methyl]-2-[4-(3-methylimidazol-4-yl)anilino]-2-oxo-ethyl]-2-methyl-pyrazole-3-carboxamide] | 100 to 1000 nM |
| Cn1cncc1-c1ccc(NC(=O)C(Cc2cc(-c3ccnc(N4CC5(CNC5)C4)c3)ccc2Cl)NC(=O)c2ccnn2C)cc1 (stereo not drawn) [Example 194, N-[1-[[2-chloro-5-[2-(2,6-diazaspiro[3.3]heptan-6-yl)-4-pyridyl]phenyl]methyl]-2-[4-(3-methylimidazol-4-yl)anilino]-2-oxo-ethyl]-2-methyl-pyrazole-3-carboxamide] | 100 to 1000 nM |
| Cn1cncc1-c1ccc(NC(=O)C(Cc2cc(-c3ccnc(N4CC(N)C4)c3)ccc2Cl)NC(=O)c2ccnn2C)cc1 (stereo not drawn) [Example 195, N-[1-[[5-[2-(3-aminoazetidin-1-yl)-4-pyridyl]-2-chloro-phenyl]methyl]-2-[4-(3-methylimidazol-4-yl)anilino]-2-oxo-ethyl]-2-methyl-pyrazole-3-carboxamide] | 100 to 1000 nM |
| CNC1CN(c2cc(-c3ccc(Cl)c(CC(NC(=O)c4ccnn4C)C(=O)Nc4ccc(-c5cncn5C)cc4)c3)ccn2)C1 (stereo not drawn) [Example 196, N-[1-[[2-chloro-5-[2-[3-(methylamino)azetidin-1-yl]-4-pyridyl]phenyl]methyl]-2-[4-(3-methylimidazol-4-yl)anilino]-2-oxo-ethyl]-2-methyl-pyrazole-3-carboxamide] | 100 to 1000 nM |
| Cn1cncc1-c1ccc(NC(=O)C(Cc2cc(-c3ccnc(N4CCNCC4)c3)ccc2Cl)NC(=O)c2ccnn2C)cc1 (stereo not drawn) [Example 197, N-[1-[[2-chloro-5-(2-piperazin-1-yl-4-pyridyl)phenyl]methyl]-2-[4-(3-methylimidazol-4-yl)anilino]-2-oxo-ethyl]-2-methyl-pyrazole-3-carboxamide] | 100 to 1000 nM |
| CCc1cc(-c2ccc(Cl)c(CC(NC(=O)c3ccnn3C)C(=O)Nc3ccc(-c4nncn4C)cc3)c2)ccc1C#N (stereo not drawn) [Example 198, N-[1-[[2-chloro-5-(4-cyano-3-ethyl-phenyl)phenyl]methyl]-2-[4-(4-methyl-1,2,4-triazol-3-yl)anilino]-2-oxo-ethyl]-2-methyl-pyrazole-3-carboxamide] | > 1000 nM |
| Cc1cc(-c2ccc(Cl)c(CC(NC(=O)c3ccnn3C)C(=O)Nc3ccc(-c4nncn4C)cc3)c2)cc(C)c1C#N (stereo not drawn) [Example 199, N-[1-[[2-chloro-5-(4-cyano-3,5-dimethyl-phenyl)phenyl]methyl]-2-[4-(4-methyl-1,2,4-triazol-3-yl)anilino]-2-oxo-ethyl]-2-methyl-pyrazole-3-carboxamide] | 100 to 1000 nM |
| Cc1n[nH]c(C)c1-c1ccc(NC(=O)[C@H](Cc2cc(-c3cnn(C(C)(C)C)c3)ccc2Cl)NC(=O)c2ccnn2C)cc1 [Example 200, N-[(1S)-1-[[5-(1-tert-butylpyrazol-4-yl)-2-chloro-phenyl]methyl]-2-[4-(3,5-dimethyl-1H-pyrazol-4-yl)anilino]-2-oxo-ethyl]-2-methyl-pyrazole-3-carboxamide] | < 100 nM |
| Cc1ncn(C)c1-c1ccc(NC(=O)[C@H](Cc2cc(-c3ccc(=O)n(C(C)C)c3)ccc2Cl)NC(=O)OC2CC2)cc1 [Example 201, cyclopropyl N-[(1S)-1-[[2-chloro-5-(1-isopropyl-6-oxo-3-pyridyl)phenyl]methyl]-2-[4-(3,5-dimethylimidazol-4-yl)anilino]-2-oxo-ethyl]carbamate] | 100 to 1000 nM |
| CC(C)c1cc(-c2ccc(Cl)c(CC(NC(=O)c3ccnn3C)C(=O)Nc3ccc(-c4nncn4C)cc3)c2)ccc1C#N (stereo not drawn) [Example 202, N-[1-[[2-chloro-5-(4-cyano-3-isopropyl-phenyl)phenyl]methyl]-2-[4-(4-methyl-1,2,4-triazol-3-yl)anilino]-2-oxo-ethyl]-2-methyl-pyrazole-3-carboxamide] | 100 to 1000 nM |
| Cc1ncn(C)c1-c1ccc(NC(=O)[C@H](Cc2cc(-c3cccc(C(C)(C)N)c3)ccc2Cl)NC(=O)c2ccnn2C)cc1 [Example 203, N-[(1S)-1-[[5-[3-(1-amino-1-methyl-ethyl)phenyl]-2-chloro-phenyl]methyl]-2-[4-(3,5-dimethylimidazol-4-yl)anilino]-2-oxo-ethyl]-2-methyl-pyrazole-3-carboxamide] | 100 to 1000 nM |
| Cc1ncn(C)c1-c1ccc(NC(=O)[C@H](Cc2cc(-c3cnn(C(C)(C)C#N)c3)ccc2Cl)NC(=O)c2ccnn2C)cc1 [Example 204, N-[(1S)-1-[[2-chloro-5-[1-(1-cyano-1-methyl-ethyl)pyrazol-4-yl]phenyl]methyl]-2-[4-(3,5-dimethylimidazol-4-yl)anilino]-2-oxo-ethyl]-2-methyl-pyrazole-3-carboxamide] | 100 to 1000 nM |
| CC(C)c1cc(-c2ccc(Cl)c(C[C@H](NC(=O)c3ccnn3C)C(=O)Nc3ccc(-c4cncn4C)cc3)c2)ncn1 [Example 205, N-[(1S)-1-[[2-chloro-5-(6-isopropylpyrimidin-4-yl)phenyl]methyl]-2-[4-(3-methylimidazol-4-yl)anilino]-2-oxo-ethyl]-2-methyl-pyrazole-3-carboxamide] | 100 to 1000 nM |
